Source: PMC7305236, “The atypical chemokine receptor ACKR3/CXCR7 is a broad-spectrum scavenger for opioid peptides” (Nature Communications, 2020)
Where two headings read alike, the source gives them in different places. Starred links: 1 amine or outer side, 2 acyl side, 3 side chain; linkers in the order of their positions; H or OH if unused. Non-standard residues stand in square brackets, D forms with d. Residues, ends and D or L forms follow the SMILES beside them. X1 = N[C@@H](Cc1ccccc1)CN(CC(=O)[*:2])[*:1]

Legend:
Assay in all cases: Figure S2a opioid peptide screen on chemokine receptors
Parameters in all cases: dose or concentration left out as unconfirmed
[1] = biological target: T1, CCR3 (Homo sapiens, UniProt P51677); conditions: read-out: CCR3 activity, ctrl+ = 100, Figure S2a
T1 sequence (P51677 1-355): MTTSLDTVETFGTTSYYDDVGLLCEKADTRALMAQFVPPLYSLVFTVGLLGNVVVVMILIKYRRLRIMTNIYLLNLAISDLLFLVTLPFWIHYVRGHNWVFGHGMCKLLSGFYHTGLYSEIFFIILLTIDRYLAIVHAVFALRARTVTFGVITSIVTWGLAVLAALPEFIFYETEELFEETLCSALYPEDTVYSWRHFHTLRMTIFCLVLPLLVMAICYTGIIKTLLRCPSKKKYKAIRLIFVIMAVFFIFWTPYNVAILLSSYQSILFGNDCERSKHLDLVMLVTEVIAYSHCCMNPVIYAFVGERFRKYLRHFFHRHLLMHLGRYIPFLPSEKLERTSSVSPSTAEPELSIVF

[2] = biological target: T2, CXCR1 (Homo sapiens, UniProt P25024); assay type: cell-based
T2 construct: expressed in transfected cells
T2 sequence (P25024 1-350): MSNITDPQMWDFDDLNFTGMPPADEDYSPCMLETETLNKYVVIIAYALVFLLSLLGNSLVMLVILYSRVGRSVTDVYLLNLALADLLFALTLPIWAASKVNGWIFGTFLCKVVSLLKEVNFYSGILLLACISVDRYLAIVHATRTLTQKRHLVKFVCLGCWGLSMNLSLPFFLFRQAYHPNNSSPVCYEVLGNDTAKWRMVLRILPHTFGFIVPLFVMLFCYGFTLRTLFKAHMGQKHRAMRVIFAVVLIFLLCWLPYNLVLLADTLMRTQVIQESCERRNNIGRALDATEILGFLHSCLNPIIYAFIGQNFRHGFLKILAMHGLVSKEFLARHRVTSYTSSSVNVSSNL

[3] = biological target: T3, CCR4 (Homo sapiens, UniProt P51679); assay type: cell-based
T3 construct: expressed in transfected cells
T3 sequence (P51679 1-360): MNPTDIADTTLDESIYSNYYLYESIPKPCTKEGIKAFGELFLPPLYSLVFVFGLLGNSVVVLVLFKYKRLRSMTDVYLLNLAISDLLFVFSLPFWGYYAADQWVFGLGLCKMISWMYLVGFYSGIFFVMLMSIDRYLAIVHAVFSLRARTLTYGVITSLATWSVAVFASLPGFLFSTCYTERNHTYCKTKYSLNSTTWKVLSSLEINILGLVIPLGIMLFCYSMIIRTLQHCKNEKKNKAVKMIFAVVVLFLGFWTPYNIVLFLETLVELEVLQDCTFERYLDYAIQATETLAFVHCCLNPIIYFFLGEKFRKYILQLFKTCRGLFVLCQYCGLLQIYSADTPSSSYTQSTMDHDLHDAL

[4] = biological target: T4, ACKR2 (Homo sapiens, UniProt O00590); assay type: cell-based
T4 construct: expressed in transfected cells; host or cells: U87 cells (human glioblastoma)
T4 sequence (O00590 1-384): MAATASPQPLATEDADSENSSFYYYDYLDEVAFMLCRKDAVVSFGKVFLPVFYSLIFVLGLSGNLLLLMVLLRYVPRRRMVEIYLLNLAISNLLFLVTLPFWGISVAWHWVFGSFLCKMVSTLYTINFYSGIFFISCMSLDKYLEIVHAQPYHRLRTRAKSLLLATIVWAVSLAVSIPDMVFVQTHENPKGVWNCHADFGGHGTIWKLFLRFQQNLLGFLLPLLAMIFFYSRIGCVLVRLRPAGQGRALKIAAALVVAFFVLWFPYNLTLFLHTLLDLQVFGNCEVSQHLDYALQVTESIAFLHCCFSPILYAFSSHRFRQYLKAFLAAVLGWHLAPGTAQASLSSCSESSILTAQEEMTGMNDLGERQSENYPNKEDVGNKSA

[5] = biological target: T5, CCR10 (Homo sapiens, UniProt P46092); assay type: cell-based
T5 construct: expressed in transfected cells
T5 sequence (P46092 1-362): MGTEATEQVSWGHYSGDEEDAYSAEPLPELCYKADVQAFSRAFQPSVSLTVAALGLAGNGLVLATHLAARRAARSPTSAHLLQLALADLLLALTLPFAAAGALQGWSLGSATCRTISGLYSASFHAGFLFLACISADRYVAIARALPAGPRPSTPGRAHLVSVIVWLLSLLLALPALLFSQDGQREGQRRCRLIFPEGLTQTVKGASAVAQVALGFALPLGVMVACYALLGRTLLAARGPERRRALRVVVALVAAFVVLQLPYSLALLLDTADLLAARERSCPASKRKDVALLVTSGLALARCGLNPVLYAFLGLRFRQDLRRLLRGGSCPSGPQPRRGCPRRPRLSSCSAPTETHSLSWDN

[6] = replicate 1, read-out: CXCR1 activity, ctrl+ = 100
[7] = replicate 2, read-out: CXCR1 activity, ctrl+ = 100
[8] = replicate 3, read-out: CXCR1 activity, ctrl+ = 100
[9] = replicate 1, read-out: CCR4 activity, ctrl+ = 100
[10] = replicate 2, read-out: CCR4 activity, ctrl+ = 100
[11] = replicate 3, read-out: CCR4 activity, ctrl+ = 100
[12] = replicate 1, read-out: ACKR2 activity, ctrl+ = 100
[13] = replicate 2, read-out: ACKR2 activity, ctrl+ = 100
[14] = replicate 3, read-out: ACKR2 activity, ctrl+ = 100
[15] = replicate 1, read-out: CCR10 activity, ctrl+ = 100
[16] = replicate 2, read-out: CCR10 activity, ctrl+ = 100
[17] = replicate 3, read-out: CCR10 activity, ctrl+ = 100

SMILES	activation ([1]; replicate 1)	activation ([1]; replicate 2)	activation ([1]; replicate 3)	activation [2, 6]	activation [2, 7]	activation [2, 8]	activation [3, 9]	activation [3, 10]	activation [3, 11]	activation [4, 12]	activation [4, 13]	activation [4, 14]	activation [5, 15]	activation [5, 16]	activation [5, 17]
CC[C@H](C)[C@H](NC(=O)[C@H](CCCNC(=N)N)NC(=O)[C@H](CCCNC(=N)N)NC(=O)[C@H](CC(C)C)NC(=O)[C@H](Cc1ccccc1)NC(=O)CNC(=O)CNC(=O)[C@@H](N)Cc1ccc(O)cc1)C(=O)N[C@@H](CCCNC(=N)N)C(=O)N1CCC[C@H]1C(=O)N[C@@H](CCCCN)C(=O)N[C@@H](CC(C)C)C(=O)N[C@@H](CCCCN)C(=O)N[C@@H](Cc1c[nH]c2ccccc12)C(=O)N[C@@H](CC(=O)O)C(=O)N[C@@H](CC(N)=O)C(=O)N[C@@H](CCC(N)=O)C(=O)O [Dynorphin A]	33.4%	-17%	43.5%	0.562%	0.211%	0.227%	-3.55%	0.0408%	5%	15.1%	-26%	2.73%	2.9%	-7.47%	4.56%
CC(C)C[C@H](NC(=O)[C@H](CCCCN)NC(=O)[C@H](CCCN=C(N)N)NC(=O)[C@H](C)NC(=O)[C@H](CO)NC(=O)[C@H](CCCCN)NC(=O)[C@H](CCCN=C(N)N)NC(=O)[C@H](C)NC(=O)CNC(=O)[C@@H](NC(=O)[C@H](Cc1ccccc1)NC(=O)CNC(=O)CNC(=O)[C@@H](N)Cc1ccccc1)[C@@H](C)O)C(=O)N[C@@H](C)C(=O)N[C@@H](CC(N)=O)C(=O)N[C@@H](CCC(N)=O)C(=O)O [Nociceptin]	8.85%	-14.3%		-0.193%	0.511%		-2.47%	-0.825%		-19.6%	-66.1%		-2.56%	-4.7%	
NC(=O)[C@H](Cc1ccccc1)NC(=O)[C@H](Cc1c[nH]c2ccccc12)NC(=O)[C@@H]1CCCN1C(=O)[C@@H](N)Cc1ccc(O)cc1 [Endomorphin-1]	18.4%	4.97%		0.195%	-0.597%		0.589%	-1.89%		-6%	11.5%		-5.29%	7.53%	
CSCC[C@H](NC(=O)[C@H](Cc1ccccc1)NC(=O)CNC(=O)CNC(=O)[C@@H](N)Cc1ccc(O)cc1)C(=O)N[C@@H](CCCNC(=N)N)C(=O)N[C@@H](CCCNC(=N)N)C(=O)N[C@H](C(N)=O)C(C)C [Adrenorphin]	10.9%	-10.8%	23.6%	0.451%	0.739%	-0.427%	-4.72%	-4.07%	2.73%	-9.62%	-28.7%	-0.924%	1.18%	-7.52%	-2%
CSCC[C@H](NC(=O)[C@H](Cc1ccccc1)NC(=O)CNC(=O)CNC(=O)[C@@H](N)Cc1ccc(O)cc1)C(=O)N[C@@H](CCCNC(=N)N)C(=O)N[C@@H](CCCNC(=N)N)C(=O)N[C@H](C(=O)NCC(=O)N[C@@H](CCCNC(=N)N)C(=O)N1CCC[C@H]1C(=O)N[C@@H](CCC(=O)O)C(=O)N[C@@H](Cc1c[nH]c2ccccc12)C(=O)N[C@@H](Cc1c[nH]c2ccccc12)C(=O)N[C@@H](CCSC)C(=O)N[C@@H](CC(=O)O)C(=O)N[C@@H](Cc1ccc(O)cc1)C(=O)N[C@@H](CCC(N)=O)C(=O)N[C@@H](CCCCN)C(=O)N[C@@H](CCCNC(=N)N)C(=O)N[C@@H](Cc1ccc(O)cc1)C(=O)NCC(=O)O)C(C)C [BAM22]	5.68%	-4.83%	17.9%	0.211%	0.0913%	-0.539%	-0.405%	-3.44%	3.02%	-3.78%	-1.93%	-0.478%	-2.23%	-4.92%	-3.25%
C[C@H](NC(=O)CNC(=O)[C@@H](NC(=O)[C@H](Cc1ccccc1)NC(=O)CNC(=O)CNC(=O)[C@@H](N)Cc1ccccc1)[C@@H](C)O)C(=O)N[C@@H](CCCNC(=N)N)C(=O)N[C@@H](CCCCN)C(=O)N[C@@H](CO)C(=O)N[C@@H](C)C(=O)N[C@@H](CCCNC(=N)N)C(=O)N[C@@H](CCCCN)C(N)=O [Nociceptin 1-13]	6.49%	6.25%	14.8%	0.237%	1.23%	-0.725%	-0.0637%	0.246%	0.411%	-54.6%	-2.02%	10.5%	2.26%	-5.16%	3.57%
C[C@H](NC(=O)CNC(=O)[C@@H](NC(=O)[C@H](Cc1ccccc1)NC(=O)CNC(=O)CNC[C@@H](N)Cc1ccccc1)[C@@H](C)O)C(=O)N[C@@H](CCCNC(=N)N)C(=O)N[C@@H](CCCCN)C(=O)N[C@@H](CO)C(=O)N[C@@H](C)C(=O)N[C@@H](CCCNC(=N)N)C(=O)N[C@@H](CCCCN)C(N)=O [FG Nociceptin 1-13] (H-[X1]GFTGARKSARK-NH2)	13%	6.22%	14.1%	-0.231%	1.41%	1.07%	-0.803%	-1.43%	-2.08%	-51.1%	36.5%	2.35%	-1.11%	-2.39%	7.95%
CC[C@H](C)[C@H](NC(=O)[C@H](CCCNC(=N)N)NC(=O)[C@H](CCCNC(=N)N)NC(=O)[C@H](CC(C)C)NC(=O)[C@H](Cc1ccccc1)NC(=O)CNC(=O)CN)C(=O)N[C@@H](CCCNC(=N)N)C(=O)N1CCC[C@H]1C(=O)N[C@@H](CCCCN)C(=O)N[C@@H](CC(C)C)C(=O)N[C@@H](CCCCN)C(=O)N[C@@H](Cc1c[nH]c2ccccc12)C(=O)N[C@@H](CC(=O)O)C(=O)N[C@@H](CC(N)=O)C(=O)N[C@@H](CCC(N)=O)C(=O)O [Dynorphin 2-17]	12.7%	-19.1%		0.572%	0.136%		-4.06%	-1.12%		12.5%	-37.2%		0.214%	-5.55%	
